# Experimental data taken from patent US20160177259A1, “[…]” (Evonik Degussa GmbH, priority 2014, published 2016).
# Tests used:
# [1] = test system: Clostridium ljungdahlii; experiment: Autotrophic production of ethanol and acetate in carbonate buffer on synthesis gas with varying L-cysteine HCl (Example 1); assay type: cell-based
# Experimental: (§1) For the production, anaerobic carbonate buffer (adjusted with KOH 1.4 g/L) was used. The only addition to the buffer was L-cysteine HCl at different concentrations.
# (§2) For identical autotrophic productions, 500 mL septum bottles were filled with 100 mL carbonate buffer and shaken at 150 min^−1 in an open shaking water bath shaker Innova 3100 by New Brunswick Scientific. The reactions were carried out at 37° C. with manual control of the pH. Once the pH dropped below 5.5, KOH was replenished from a stock solution of 140 g/L. In the present experiments the pH in both reactors were checked at the following points in time 50.3 h, 73.3 h and corrected by the addition of each 1.4 g/L KOH manually.
# (§3) The reactors were inoculated with a synthesis gas mixture of 67% H2 and 33% CO2 and pressure of 0.8 bar applied. To replenish the depleted gas, the gas above the reactors was replaced once a day and again the pressure brought to 0.8 bars.
# (§4) The reactor was started by seeding autotrophic grown cells at an OD of 0.2. The preculture was carried out continuously in a 1 L bottle with 500 mL complex medium. The complex medium consisting of 1 g/lNH4Cl, 0.1 g/l KCl, 0.2 g/l MgSO4 ×7 H2O, 0.8 g/l NaCl, 0.1 g/l KH2PO4, 20 mg/l CaCl2 ×2 H2O, 20 g/l MES, 1 g/l yeast extract, 0.4 g/L L-Cysteine-HC1, 20 mg/l nitrilotriacetic acid, 10 mg/l MnSO4×H2O, 8 mg/l (NH4)2Fe(SO4)2×6 H2O, 2 mg/l CoCl2×6 H2O, 2 mg/l ZnSO4 33 7 H2O, 0.2 mg/l CuCl 2 33 2 H2O, 0.2 mg/l Na2MoO4×2 H2O, 0.2 mg/l NiCl2×6 H2O, 0.2 mg/l Na2SeO4, 0.2 mg/l Na2WO4×2 H2O, 20 μg/l d-Biotin, 20 μg/l folic acid, 100 μg/l pyridoxine HCl, 50μg/l thiamine-HCl×H2O, 50 μg l of riboflavin, 50 μg/l nicotinic acid, 50 μg/l Ca-pantothenate, 1 μg/l vitamin B12, 50μg/l p-aminobenzoate, 50 μg/l lipoic acid. The culture was then gassed continuously with synthesis gas (67% H2, 33% CO2) at a flow rate of 3 l/h over a filter with pore size 10 microns. The cells were in late log phase growth at an OD of 0.37 and where anaerobically centrifuged (4500 rpm, 4300 g, 20° C., 10 min). The supernatant was discarded and the cell pellet resuspended in 10 ml carbonate buffer. The prepared cells were then used to inoculate the actual tests.
# (§5) When sampling each 5 ml sample was removed for determination of OD600, pH and the product spectrum. The determination of the product concentration was performed using quantitative 1H-NMR spectroscopy. As an internal quantification standard sodium trimethylsilylpropionate was used (T(M)SP).
# [2] = test system: Clostridium ljungdahlii; experiment: Example 1 redone at shaking speed 100 min-1 (Example 1b); assay type: cell-based
# Experimental: as §1, §2, §3, §4, §5
# The example 1 above was redone with only a difference in the shaking speed on the septum bottles for autotrophic productions. The shaking speed used was 100 min^−1.
# A reporting error in example 1 was noticed where the results of cysteine for reactor 1 and 2 were switched.
# [3] = reactor 1, 0.1 g/L L-Cysteine-HCl, 150 min-1, 0.0 h
# [4] = reactor 1, 0.1 g/L L-Cysteine-HCl, 150 min-1, 24.5 h
# [5] = reactor 1, 0.1 g/L L-Cysteine-HCl, 150 min-1, 50.3 h
# [6] = reactor 1, 0.1 g/L L-Cysteine-HCl, 150 min-1, 73.3 h
# [7] = reactor 1, 0.1 g/L L-Cysteine-HCl, 150 min-1, 92.3 h
# [8] = reactor 2, 0.4 g/L L-Cysteine-HCl, 150 min-1, 0.0 h
# [9] = reactor 2, 0.4 g/L L-Cysteine-HCl, 150 min-1, 24.5 h
# [10] = reactor 2, 0.4 g/L L-Cysteine-HCl, 150 min-1, 50.3 h
# [11] = reactor 2, 0.4 g/L L-Cysteine-HCl, 150 min-1, 73.3 h
# [12] = reactor 2, 0.4 g/L L-Cysteine-HCl, 150 min-1, 92.3 h
# [13] = reactor 1, 0.1 g/L L-Cysteine-HCl, 100 min-1, 0.0 h
# [14] = reactor 1, 0.1 g/L L-Cysteine-HCl, 100 min-1, 24.5 h
# [15] = reactor 1, 0.1 g/L L-Cysteine-HCl, 100 min-1, 50.3 h
# [16] = reactor 1, 0.1 g/L L-Cysteine-HCl, 100 min-1, 73.3 h
# [17] = reactor 1, 0.1 g/L L-Cysteine-HCl, 100 min-1, 92.3 h
# [18] = reactor 2, 0.4 g/L L-Cysteine-HCl, 100 min-1, 0.0 h
# [19] = reactor 2, 0.4 g/L L-Cysteine-HCl, 100 min-1, 24.5 h
# [20] = reactor 2, 0.4 g/L L-Cysteine-HCl, 100 min-1, 50.3 h
# [21] = reactor 2, 0.4 g/L L-Cysteine-HCl, 100 min-1, 73.3 h
# [22] = reactor 2, 0.4 g/L L-Cysteine-HCl, 100 min-1, 92.3 h
smiles,measurement,setting,value
"Cl.N[C@@H](CS)C(=O)O [L-Cysteine-HCl, L-cysteine hydrochloride]",concentrations of ethanol and acetate,"[1]; 0.1 g/L compared with 0.4 g/L L-cysteine-HCl, after 92.3 h",higher
same,Acetate (NMR),[1]; [3],13 mg/L
same,Ethanol (NMR),[1]; [3],6 mg/L
same,OD600,[1]; [3],0.25
same,Acetate (NMR),[1]; [4],1418 mg/L
same,Ethanol (NMR),[1]; [4],19 mg/L
same,OD600,[1]; [4],0.25
same,Δp,[1]; [4],0.6 bar
same,Acetate (NMR),[1]; [5],2556 mg/L
same,Ethanol (NMR),[1]; [5],130 mg/L
same,OD600,[1]; [5],0.30
same,Δp,[1]; [5],0.6 bar
same,OD600,[1]; [6],0.30
same,Δp,[1]; [6],0.6 bar
same,Acetate (NMR),[1]; [7],6960 mg/L
same,Ethanol (NMR),[1]; [7],321 mg/L
same,OD600,[1]; [7],0.26
same,Δp,[1]; [7],0.4 bar
same,total gas consumption,"[1]; reactor 1 with 0.1 g/L compared with reactor with 0.4 g/L L-cysteine-HCl, over 92.3 h",higher
same,Acetate (NMR),[1]; [8],15 mg/L
same,Ethanol (NMR),[1]; [8],8 mg/L
same,OD600,[1]; [8],0.24
same,Acetate (NMR),[1]; [9],2331 mg/L
same,Ethanol (NMR),[1]; [9],27 mg/L
same,OD600,[1]; [9],0.23
same,Δp,[1]; [9],0.6 bar
same,Acetate (NMR),[1]; [10],3197 mg/L
same,Ethanol (NMR),[1]; [10],128 mg/L
same,OD600,[1]; [10],0.26
same,Δp,[1]; [10],0.5 bar
same,OD600,[1]; [11],0.22
same,Δp,[1]; [11],0.3 bar
same,Acetate (NMR),[1]; [12],5067 mg/L
same,Ethanol (NMR),[1]; [12],150 mg/L
same,OD600,[1]; [12],0.22
same,Δp,[1]; [12],0.3 bar
same,Acetate (NMR),[2]; [13],13 mg/L
same,Ethanol (NMR),[2]; [13],6 mg/L
same,OD600,[2]; [13],0.25
same,Acetate (NMR),[2]; [14],1418 mg/L
same,Ethanol (NMR),[2]; [14],19 mg/L
same,OD600,[2]; [14],0.25
same,Δp,[2]; [14],0.6 bar
same,Acetate (NMR),[2]; [15],2556 mg/L
same,Ethanol (NMR),[2]; [15],130 mg/L
same,OD600,[2]; [15],0.30
same,Δp,[2]; [15],0.6 bar
same,OD600,[2]; [16],0.30
same,Δp,[2]; [16],0.6 bar
same,Acetate (NMR),[2]; [17],6960 mg/L
same,Ethanol (NMR),[2]; [17],321 mg/L
same,OD600,[2]; [17],0.26
same,Δp,[2]; [17],0.4 bar
same,Acetate (NMR),[2]; [18],15 mg/L
same,Ethanol (NMR),[2]; [18],8 mg/L
same,OD600,[2]; [18],0.24
same,Acetate (NMR),[2]; [19],2331 mg/L
same,Ethanol (NMR),[2]; [19],27 mg/L
same,OD600,[2]; [19],0.23
same,Δp,[2]; [19],0.6 bar
same,Acetate (NMR),[2]; [20],3197 mg/L
same,Ethanol (NMR),[2]; [20],128 mg/L
same,OD600,[2]; [20],0.26
same,Δp,[2]; [20],0.5 bar
same,OD600,[2]; [21],0.22
same,Δp,[2]; [21],0.3 bar
same,Acetate (NMR),[2]; [22],5067 mg/L
same,Ethanol (NMR),[2]; [22],150 mg/L
same,OD600,[2]; [22],0.22
same,Δp,[2]; [22],0.3 bar
